Source: EP4001279A1, “NOVEL SPIROPYRROLIDINE DERIVED ANTIVIRAL AGENTS” (Enanta Pharmaceuticals, Inc., priority 2020, dated 2022)

What follows are compounds tested on 229E human corona virus (hCoV) (assay: 229E live virus assay (CPE, ATPlite readout in MRC-5 cells)). Details: Human coronavirus 229E, MRC5, hCoV-229E live virus, MOI 0.05, ATPlite readout, run in duplicate.
Assay type: cell-based, hCoV-229E
CN(C(=O)Cc1ccncc1)[C@@H](CC(C)(C)F)C(=O)N1C[C@]2(C[C@H]1C#N)C(=O)Nc1ccc(Cl)cc12 [Example 477] gave an EC50 of 100 to 1000 nM.
Work on CN(C(=O)C1(c2ccccn2)CC1)[C@@H](CC(C)(C)F)C(=O)N1C[C@]2(C[C@H]1C#N)C(=O)Nc1ccc(Cl)cc12 [Example 478] yielded an EC50 of 100 to 1000 nM.
CN(C(=O)C1(c2cccnc2)CC1)[C@@H](CC(C)(C)F)C(=O)N1C[C@]2(C[C@H]1C#N)C(=O)Nc1ccc(Cl)cc12 [Example 479] was tested, and the EC50 was 100 to 1000 nM.
Work on CN(C(=O)C(F)(F)c1ccncc1)[C@@H](CC(C)(C)F)C(=O)N1C[C@]2(C[C@H]1C#N)C(=O)Nc1ccc(Cl)cc12 [Example 480] yielded an EC50 of less than 100 nM.
Work on CN(C(=O)C(F)(F)c1ccccn1)[C@@H](CC(C)(C)F)C(=O)N1C[C@]2(C[C@H]1C#N)C(=O)Nc1ccc(Cl)cc12 [Example 481] yielded an EC50 of 100 to 1000 nM.
Work on CN(C(=O)C(F)(F)c1cccnc1)[C@@H](CC(C)(C)F)C(=O)N1C[C@]2(C[C@H]1C#N)C(=O)Nc1ccc(Cl)cc12 [Example 482] yielded an EC50 of less than 100 nM.
CN(C(=O)Cc1ccccn1)[C@@H](CC(C)(C)F)C(=O)N1C[C@]2(C[C@H]1C#N)C(=O)Nc1ccc(Cl)cc12 [Example 483] was tested, and the EC50 was 100 to 1000 nM.
CN(C(=O)Cc1cnccn1)[C@@H](CC(C)(C)F)C(=O)N1C[C@]2(C[C@H]1C#N)C(=O)Nc1ccc(Cl)cc12 [Example 484] gave an EC50 of 100 to 1000 nM.
Compound CN(C(=O)Cc1cccc(C(F)(F)F)n1)[C@@H](CC(C)(C)F)C(=O)N1C[C@]2(C[C@H]1C#N)C(=O)Nc1ccc(Cl)cc12 [Example 485] has an EC50 of 100 to 1000 nM.
With Cc1cccc(C(F)(F)C(=O)N(C)[C@@H](CC(C)(C)F)C(=O)N2C[C@]3(C[C@H]2C#N)C(=O)Nc2ccc(Cl)cc23)n1 [Example 486] the EC50 was 100 to 1000 nM.
In the case of Cc1cccc(CC(=O)N(C)[C@@H](CC(C)(C)F)C(=O)N2C[C@]3(C[C@H]2C#N)C(=O)Nc2ccc(Cl)cc23)n1 [Example 487], the EC50 is reported as 100 to 1000 nM.
Compound N#C[C@@H]1C[C@@]2(CN1C(=O)[C@H](CC1CC1)NC(=O)OCc1c(F)cccc1F)C(=O)Nc1ccc(Cl)cc12 [Example 492, 2,6-difluorobenzyl ((S)-1-((3R,5'S)-5-chloro-5'-cyano-2-oxospiro[indoline-3,3'-pyrrolidin]-1'-yl)-3-cyclopropyl-1-oxopropan-2-yl)carbamate] has an EC50 of 100 to 1000 nM.
Compound N#C[C@@H]1C[C@@]2(CN1C(=O)[C@H](CC1CC1)NC(=O)OCc1ccc(F)cc1F)C(=O)Nc1ccc(Cl)cc12 [Example 493] has an EC50 of 100 to 1000 nM.
Work on C[C@@H](OC(=O)N[C@@H](CC(C)(C)C)C(=O)N1C[C@]2(C[C@H]1C#N)C(=O)Nc1ccc(Cl)cc12)c1ccc(F)cc1 [Example 495] yielded an EC50 of 100 to 1000 nM.
Work on CC(C)(C)C[C@H](NC(=O)OC(C)(C)c1ccc(F)cc1)C(=O)N1C[C@]2(C[C@H]1C#N)C(=O)Nc1ccc(Cl)cc12 [Example 496] yielded an EC50 greater than 1000 nM.
For CC(C)C[C@@H](C(=O)N1C[C@]2(C[C@H]1C(=O)O)C(=O)Nc1ccc(Cl)cc12)N(C)C(=O)c1cc2c(F)cc(F)cc2[nH]1 [Example 497, (3R,5'S)-5-chloro-1'-(N-(4,6-difluoro-1H-indole-2-carbonyl)-N-methyl-L-leucyl)-2-oxospiro[indoline-3,3'-pyrrolidine]-5'-carboxylic acid], the EC50 was greater than 1000 nM.
Work on C=C(C)c1ccc2c(c1)[C@@]1(C[C@@H](C#N)N(C(=O)[C@H](CC(C)C)N(C)C(=O)c3cc4c(F)cc(F)cc4[nH]3)C1)C(=O)N2 [Example 498, N-((S)-1-((3R,5'S)-5'-cyano-2-oxo-5-(prop-1-en-2-yl)spiro[indoline-3,3'-pyrrolidin]-1'-yl)-4-methyl-1-oxopentan-2-yl)-4,6-difluoro-N-methyl-1H-indole-2-carboxamide] yielded an EC50 of less than 100 nM.
Work on CC(=O)c1ccc2c(c1)[C@@]1(C[C@@H](C#N)N(C(=O)[C@H](CC(C)C)N(C)C(=O)c3cc4c(F)cc(F)cc4[nH]3)C1)C(=O)N2 [Example 499, N-((S)-1-((3R,5'S)-5-acetyl-5'-cyano-2-oxospiro[indoline-3,3'-pyrrolidin]-1'-yl)-4-methyl-1-oxopentan-2-yl)-4,6-difluoro-N-methyl-1H-indole-2-carboxamide] yielded an EC50 of less than 100 nM.
